SMILES strings stand for the structures. “Also recorded” adds a separate entry of the source. Some results are limits rather than exact numbers.

In one experiment the test system is NR3B2 (ERRβ). The note with it: ref Supplementary Table 1, cited from earlier work.
Another experiment deals with NR3A2 (ERβ). As to conditions: (lit.); ref Supplementary Table 1; read-out: Potency [nM] IC50, NR3A2 (ERβ); cited from earlier work.
The conditions of experiment [1]: cited from earlier work; for Other off-target at recom. conc.: known off-target outside the NR family at the recommended concentration; for Other off-target at recom. conc. / NR off-target at recom. conc.: ref Supplementary Table 1 (superscript references); for NR off-target at recom. conc.: known NR off-target at the recommended concentration; for Reason for exclusion: number of annotated off-targets: other targets with annotated bioactivities at ≤10 µM in previously published dataset.

A further experiment has as its target T1, NR1B1 (RARα) (Homo sapiens, UniProt P10276).
T1 construct: expressed in transfected cells; host or cells: HEK293T
The experiment in a line: Gal4 hybrid reporter gene assay RARα. Format: cell-based. The arrangement: Activity on NR targets outside NR3 family [mean log10(fold reporter gene activity)] NR1B1 (RARα): concentration or dose not given beside the values. Here is the method: (§1) Reference ligands are listed in the methods section.
(§2) Five hours after transfection, the cells were incubated with the NR3 CG compound candidates at the recommended concentrations by changing the medium to Opti-MEM supplemented with penicillin (100 µ/mL) and streptomycin (100 µg/mL) additionally containing 0.1% DMSO and the respective test compound or 0.1% DMSO alone as untreated control. Firefly (reporter) and renilla (control) luminescence were measured after 14–16 h incubation using the Dual-Glo® Luciferase Assay System (Promega, Fitchburg, Wisconsin, USA; #E2980) according to manufacturer’s protocol on a Tecan Spark® 10M multimode microplate reader (Tecan Group AG, Männedorf, Switzerland). To obtain relative light units (RLU) firefly luminescence was divided by renilla luminescence and multiplied by 1000. Fold activation was obtained by dividing the mean RLU of a test sample by the mean RLU of the DMSO (0.1%) control. Experiments were performed in singlets in at least three biologically independent repeats.
(§3) Supplementary Figure 1. […] Compounds are labeled according
(§4) Supplementary Figure 2. […] Compounds are
(§5) representing the NR1, NR2, NR4 and NR5 families.
(§6) scanning fluorimetry (DSF).
(§7) a concentration of 20 µM.

In a further experiment the target is T2, NR2B1 (RXRα) (Homo sapiens, UniProt P19793).
T2 construct: expressed in transfected cells; host or cells: HEK293T
T2 sequence (P19793 227-458 limits assumed): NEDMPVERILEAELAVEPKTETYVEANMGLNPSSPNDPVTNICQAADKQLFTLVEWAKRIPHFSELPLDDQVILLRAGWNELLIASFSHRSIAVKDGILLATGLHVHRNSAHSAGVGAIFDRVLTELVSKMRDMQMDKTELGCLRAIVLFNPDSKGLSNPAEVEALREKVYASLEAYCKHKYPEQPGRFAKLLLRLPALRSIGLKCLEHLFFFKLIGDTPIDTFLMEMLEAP
Description: Gal4 hybrid reporter gene assay RXRα. Format: cell-based. As to conditions: n=3. Here is the method:
as §1, §2, §3, §4, §5, §6, §7

In another experiment the target is T3, NR2A2 (HNF4α) (Homo sapiens, UniProt P41235).
T3 construct: expressed in transfected cells; host or cells: HEK293T
T3 sequence (P41235 147-377 limits assumed): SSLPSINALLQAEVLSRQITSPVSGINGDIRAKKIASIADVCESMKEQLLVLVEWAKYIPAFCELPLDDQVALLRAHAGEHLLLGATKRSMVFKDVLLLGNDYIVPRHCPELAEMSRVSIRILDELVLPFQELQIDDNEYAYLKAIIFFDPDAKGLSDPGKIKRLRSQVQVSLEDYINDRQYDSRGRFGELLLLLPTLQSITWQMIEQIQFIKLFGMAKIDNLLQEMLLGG
The experiment in a line: Gal4 hybrid reporter gene assay HNF4α. The note with it: n=3. Format: cell-based. Here is the method:
as §1
HEK293T cells (ATCC, Manassas, Virgina, USA; #CRL-3216) were cultured to a maximal confluence of 70–80% in DMEM, high glucose, supplemented with 10% FCS, sodium pyruvate (1 mM), penicillin (100 U/mL), and streptomycin (100 μg/mL) at 37 °C and 5% CO2 (v/v), and seeded in clear 96-well plates (4 × 10^4 cells per well). After 20–24 h, medium was changed to Opti-MEM without supplements and the cells were transiently transfected using Lipofectamine™ LTX/Plus™ Reagents (Invitrogen, Carlsbad, California, USA; #15338100) according to the manufacturer’s protocol with pFR-Luc (reporter gene; Stratagene, Agilent Technologies, Santa Clara, California, USA; #219050), pRL-SV40 (control gene for normalization of transfection efficiency and cell growth; Promega, Fitchburg, Wisconsin, USA; #E2231) and one pFA-CMV-hNR-LBD clone coding for the hinge region and ligand binding domain (LBD) of the human NR of interest. […] Firefly (reporter) and renilla (control) luminescence were measured after 14–16 h incubation using the Dual-Glo® Luciferase Assay System (Promega, Fitchburg, Wisconsin, USA; #E2980) according to manufacturer’s protocol on a Tecan Spark® 10M multimode microplate reader (Tecan Group AG, Männedorf, Switzerland). To obtain relative light units (RLU) firefly luminescence was divided by renilla luminescence and multiplied by 1000. […]

For a further experiment, the target named is T4, NR1H3 (LXRα) (Homo sapiens, UniProt Q13133).
T4 construct: expressed in transfected cells; host or cells: HEK293T
T4 sequence (Q13133 209-447 limits assumed): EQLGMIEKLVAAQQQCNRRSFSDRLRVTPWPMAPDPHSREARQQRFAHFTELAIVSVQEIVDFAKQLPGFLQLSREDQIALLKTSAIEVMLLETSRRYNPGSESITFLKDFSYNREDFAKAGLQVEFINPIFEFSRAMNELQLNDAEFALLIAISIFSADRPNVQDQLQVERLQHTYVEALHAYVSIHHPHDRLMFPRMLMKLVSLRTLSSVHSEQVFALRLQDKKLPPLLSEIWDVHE
The experiment in a line: Gal4 hybrid reporter gene assay LXRα. The note with it: n=3. Format: cell-based. Here is the method:
as §1
HEK293T cells (ATCC, Manassas, Virgina, USA; #CRL-3216) were cultured to a maximal confluence of 70–80% in DMEM, high glucose, supplemented with 10% FCS, sodium pyruvate (1 mM), penicillin (100 U/mL), and streptomycin (100 μg/mL) at 37 °C and 5% CO2 (v/v), and seeded in clear 96-well plates (4 × 10^4 cells per well). After 20–24 h, medium was changed to Opti-MEM without supplements and the cells were transiently transfected using Lipofectamine™ LTX/Plus™ Reagents (Invitrogen, Carlsbad, California, USA; #15338100) according to the manufacturer’s protocol with pFR-Luc (reporter gene; Stratagene, Agilent Technologies, Santa Clara, California, USA; #219050), pRL-SV40 (control gene for normalization of transfection efficiency and cell growth; Promega, Fitchburg, Wisconsin, USA; #E2231) and one pFA-CMV-hNR-LBD clone coding for the hinge region and ligand binding domain (LBD) of the human NR of interest. Five hours after transfection, the cells were incubated with the NR3 CG compound candidates at the recommended concentrations by changing the medium to Opti-MEM supplemented with penicillin (100 µ/mL) and streptomycin (100 µg/mL) additionally containing 0.1% DMSO and the respective test compound or 0.1% DMSO alone as untreated control. Firefly (reporter) and renilla (control) luminescence were measured after 14–16 h incubation using the Dual-Glo® Luciferase Assay System (Promega, Fitchburg, Wisconsin, USA; #E2980) according to manufacturer’s protocol on a Tecan Spark® 10M multimode microplate reader (Tecan Group AG, Männedorf, Switzerland). To obtain relative light units (RLU) firefly luminescence was divided by renilla luminescence and multiplied by 1000. Fold activation was obtained by dividing the mean RLU of a test sample by the mean RLU of the DMSO (0.1%) control. Experiments were performed in singlets in at least three biologically independent repeats. […]

The subject of another experiment is NR3C1 (GR). The note with it: cited from earlier work.
The test system of the next experiment is NR3C4 (AR). The note with it: cited from earlier work.

T1 sequence (P10276 183-417 limits assumed): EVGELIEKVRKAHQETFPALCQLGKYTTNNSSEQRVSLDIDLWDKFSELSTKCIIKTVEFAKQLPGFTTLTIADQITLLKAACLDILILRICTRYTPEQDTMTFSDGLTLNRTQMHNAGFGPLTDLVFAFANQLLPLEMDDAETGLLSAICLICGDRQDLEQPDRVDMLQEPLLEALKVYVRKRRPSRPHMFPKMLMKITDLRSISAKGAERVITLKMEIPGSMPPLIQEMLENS

For the compound `CC/C(=C(\c1ccc(O)cc1)c1ccc(OCCN(C)C)cc1)c1ccccc1` [(Z)-4-Hydroxytamoxifen], the IC50 is 650 nM with NR3B2 (ERRβ) ((lit.), read-out: Potency [nM] IC50, NR3B2 (ERRβ)) and 1 ± 1 nM in the experiment on NR3A2 (ERβ). Further, the “Other off-target at recom. conc.” value in [1] was “PLD1 and PLD2”.

For the compound `CC/C(=C(/c1ccc(/C=C/C(=O)O)cc1)c1ccc2[nH]ncc2c1)c1ccc(F)cc1Cl` [ARN810], the “Activity on NR1B1 (RARα)” value at NR1B1 (RARα) (1 µM, n=3) is -0.97 mean log10(fold reporter gene activity). Besides, the “Activity on NR2B1 (RXRα)” value at NR2B1 (RXRα) (1 µM) was -0.29 mean log10(fold reporter gene activity). The 50% inhibitory concentration (IC50) in the experiment with NR3A2 (ERβ) is 9 nM. In addition, in experiment [1], the “NR off-target at recom. conc.” value is “NR3C1; also recorded: NR3C2; also recorded: NR3C3; also recorded: NR3C4”; the “Other off-target at recom. conc.” value was “GABAA and DAT”; the “Reason for exclusion: number of annotated off-targets” value (from here on “Reason for exclusion: number”) is listed as above 5 off-targets.

As to `C[C@@H]1Cc2c([nH]c3ccccc23)[C@@H](c2c(F)cc(/C=C/C(=O)O)cc2F)N1CC(C)(C)F` [AZD9496], the “Activity on NR targets outside NR3 family [mean log10(fold reporter gene activity)] NR1B1 (RARα)” value at NR1B1 (RARα) is recorded as -0.43 log10(fold reporter gene activity).

For `COc1ccc(-c2coc3cc(O)cc(O)c3c2=O)cc1` [Biochanin A], the “Activity on NR2A2 (HNF4α)” value on NR2A2 (HNF4α) (10 µM) is given as 0.38 mean log10(fold reporter gene activity). The “Activity on NR2B1 (RXRα)” value on NR2B1 (RXRα) (10 µM) is -0.68 mean log10(fold reporter gene activity). Further, the “Reason for exclusion: number” value in experiment [1] is listed as above 5 off-targets. Besides, the “Activity on NR1H3 (LXRα)” value at NR1H3 (LXRα) (10 µM) was -0.46 mean log10(fold reporter gene activity).

Take `CCCC1O[C@@H]2C[C@H]3[C@@H]4CCC5=CC(=O)C=C[C@]5(C)[C@H]4[C@@H](O)C[C@]3(C)[C@]2(C(=O)CO)O1` (stereo partly shown) [Budesonide]: the “Reason for exclusion: number” value in experiment [1] is given as above 5 off-targets.

Regarding `CCN(CC)c1ccc(/C=N/NC(=O)c2ccc(O)cc2)cc1` [DY131], the “Activity on NR targets outside NR3 family [mean log10(fold reporter gene activity)] NR2A2 (HNF4α)” value on NR2A2 (HNF4α) (3 µM, vs. DMSO ctrl) is recorded as 0.29 log10(fold reporter gene activity). For the same compound, in the experiment on NR3B2 (ERRβ), the “rel. activity from literature, NR3B2 (ERRβ): fold activation” value is listed as 2 fold.

Turning to `Cc1ccc2c(NC[C@](O)(CC(C)(C)c3cc(F)cc4c3OCC4)C(F)(F)F)cccc2n1` [Mapracorat], the EC50 in the experiment on NR3C1 (GR) ((lit.), ref Supplementary Table 1, read-out: Potency [nM] EC50, NR3C1 (GR)) is 1.6 ± 0.3 nM. Besides, the “rel. activity from literature, NR3C1 (GR): % transrepression” value in the experiment with NR3C1 (GR) (transrepression) is listed as 89 ± 4%. Further, the “Activity on NR targets outside NR3 family [mean log10(fold reporter gene activity)] NR1H3 (LXRα)” value at NR1H3 (LXRα) (1 µM, vs. DMSO ctrl) is -0.38 log10(fold reporter gene activity).

Consider `CC#C[C@]1(O)CC[C@H]2[C@@H]3CCC4=CC(=O)CCC4=C3[C@@H](c3ccc(N(C)C)cc3)C[C@@]21C` [Mifepristone], for which the IC50 is 0.8 ± 0.1 nM in the experiment with NR3C1 (GR) ((lit.), ref Supplementary Table 1, read-out: Potency [nM] IC50, NR3C1 (GR)) and 5 ± 2 nM with NR3C4 (AR) (read-out: Potency [nM] IC50, NR3C4 (AR), (lit.), ref Supplementary Table 1). In the experiment with NR3C1 (GR) (rem. act. of DXM (dexamethasone)), the “rel. activity from literature, NR3C1 (GR): % rem. act. of DXM” value was 5 ± 1%. The “rel. activity from literature, NR3C4 (AR): % rem. act. of DHT” value in the experiment on NR3C4 (AR) was 25 ± 2%.

With `C/C=C1\C(=O)C[C@H]2[C@@H]3CCC4=CC(=O)CC[C@]4(C)[C@H]3CC[C@]12C` [Z-Guggulsterone], the EC50 with NR3C4 (AR) (read-out: Potency [nM] EC50, NR3C4 (AR), (lit.), ref Supplementary Table 1) is 660 ± 240 nM. Also, in experiment [1], the “NR off-target at recom. conc.” value was “NR1H4; also recorded: NR1I2; also recorded: NR3A1; also recorded: NR3C1; also recorded: NR3C2” and the “Reason for exclusion: number” value is on record as above 5 off-targets. The “Activity on NR1H3 (LXRα)” value on NR1H3 (LXRα) (3 µM) is -0.71 mean log10(fold reporter gene activity).
